Where two headings read alike, the source gives them in different places.
Key:
[1] = system: alkaline phosphatase; conditions: TBQ, 37° C., 25 minutes
Description: The following reagents were used for this: • 0.1M aminomethylpropanol buffer, pH 9.5 (AMP Buffer), • CDP-Star® (CDP*, Life Technologies): 6.2 mg/mL (12.5 mM) in AMP Buffer, • ADP-Star® (ADP*, Life Technologies): 1 mg/mL (2.2 mM) in 0.1M AMP Buffer, • ADP*-EE Oxidation mixture: 1 mg/mL (2.3 mM) in 0.1M AMP Buffer, • TBQ: 10× Sapphire II™ chemiluminescence enhancer (Life Technologies), and • Alkaline Phosphatase stock (AP): 8 ng/mL (from 17.4 mg/mL concentrate).
10 μL ADP* or ADP*-EE Oxidation mixture (0.22 or 0.23 mM, respectively), 10 μL TBQ, 80 μL AMP Buffer and 10 μL AP were combined and the luminescence from the mixture was measured continuously at 37° C. for 25 minutes. 1.6 μL CDP* (0.2 mM), 10 μL TBQ, 80 μL AMP Buffer and 10 μL AP were combined and the luminescence from the mixture was measured continuously at 37° C. for 25 minutes.

[2] = Thermal stability of aqueous solutions of reagents; type: physicochemical
Description: The thermal stabilities of aqueous solutions AMPPD®, AMPPD enol ether phosphate (AMPPD-EE) and AMPPD-EE in the presence of Na2MoO4 were examined.

[3] = system: alkaline phosphatase; conditions: in the presence of Sapphire II enhancer
Description: Benchmarking experiments compared the light emission (in RLUs) and signal to noise (S:N) of in situ ADP-Star with control dioxetanes CSPD®, ADP-Star®, and CDP-Star®.

[4] = cited from earlier work
[5] = system: alkaline phosphatase
Description: Before developing assay conditions with Method B in situ dioxetane generation, we investigated whether the reagents from the oxidation system adversely affected alkaline phosphatase activity. […] Any quenching effects from a singlet oxygen generation/reaction system may be enzyme-specific, and would have to be evaluated for any enzyme/detection substrate pair.

COC(=C1C2CC3CC(C2)CC1C3)c1ccc(Cl)c(OP(=O)([O-])[O-])c1.[Na+].[Na+] [ADP-Star enol ether phosphate]
light emission compared with CDP-Star dioxetane control [1]: higher light emission

COC(=C1C2CC3CC(C2)CC1C3)c1cccc(OP(=O)([O-])[O-])c1.[Na+].[Na+] [AMPPD-EE]
Stability/Storage Conditions (loss) ([2]; 1 month, 55° C.): Minimal loss in 1 month, 55 °C | thermal decomposition ([2]; aqueous solution, 40° C. over 4+ months): virtually no thermal decomposition | thermal decomposition ([2]; aqueous solution, 55° C. over 5+ months): minimal thermal decomposition | thermal decomposition ([2]; in the presence of Na2MoO4 at 40° C.): no thermal decomposition

COC1(c2cccc(OP(=O)(O)O)c2)OOC12C1CC3CC(C1)CC2C3 (stereo not drawn) [AMPPD®, reference compound]
thermal half-life ([2]; aqueous solution, 40° C.): ~40 days | thermal half-life ([2]; aqueous solution, 55° C.): ~10 days

COC1(c2cccc(OP(=O)(O)O)c2)OOC12C1CC3CC2CC(Cl)(C3)C1 (stereo not drawn) [CSPD®]
time reaching glow (maximum light emission) [3]: 30 min

OO [hydrogen peroxide]
Stability/Storage Conditions ([4]; 35% soln, 1 yr, 25° C.): >99.3% in 1 yr, 25° C.; | Stability/Storage Conditions ([4]; 35% soln, 24 hr, 100° C.): ≥96.0% in 24 hr, 100 °C | effect on alkaline phosphatase activity [5]: does not affect alkaline phosphatase activity

[Na+].[Na+].[O]=[Mo](=[O])([O-])[O-] [sodium molybdate]
Stability/Storage Conditions ([4]; solid): “Stable under ordinary conditions of use & | effect on alkaline phosphatase activity ([5]; AMPPD substrate, TBQ enhancer, 37° C., 30 minutes): significantly quenches alkaline phosphatase activity | light reduction (quenching of alkaline phosphatase activity) ([5]; AMPPD substrate, various amounts of Na2MoO4 stock, 37° C.): up to 85% | alkaline phosphatase activity on lowering concentration ([5]; sodium molybdate <1 mM): restores most of the alkaline phosphatase activity
